Values after ≈ are worked out from the molar mass of the structure shown.
Key:
Type in all cases: functional
Conditions in all cases: time 16-18 hrs, read-out: MIC100
Escherichia coli = assay: Antibacterial activity against Escherichia coli ATCC 25922 assessed as inhibition of bacterial growth incubated for 16 to 18 hrs by CLSI protocol based method
Staphylococcus aureus = assay: Antibacterial activity against Staphylococcus aureus ATCC 29213 assessed as inhibition of bacterial growth incubated for 16 to 18 hrs by CLSI protocol based method
Klebsiella pneumoniae = assay: Antibacterial activity against Klebsiella pneumoniae BAA 1705 assessed as inhibition of bacterial growth incubated for 16 to 18 hrs by CLSI protocol based method
Acinetobacter baumannii = assay: Antibacterial activity against carbapenem-resistant Acinetobacter baumannii BAA 1605 assessed as inhibition of bacterial growth incubated for 16 to 18 hrs by CLSI protocol based method
Pseudomonas aeruginosa = assay: Antibacterial activity against Pseudomonas aeruginosa ATCC 27853 assessed as inhibition of bacterial growth incubated for 16 to 18 hrs by CLSI protocol based method

SMILES | MIC (Escherichia coli) [µg/mL] | MIC (Staphylococcus aureus) [µg/mL] | MIC (Klebsiella pneumoniae) [µg/mL] | MIC (Acinetobacter baumannii) [µg/mL] | MIC (Pseudomonas aeruginosa) [µg/mL]
O=C(NNc1ccc(Br)cc1)[C@@H](Cc1ccccc1)N1C(=O)c2cccc3cccc(c23)C1=O | > 64 | > 64 | > 64 | 8 (≈ 15.6 µM) | > 64
N#Cc1ccc(NNC(=O)CCN2C(=O)c3cccc4c(Br)ccc(c34)C2=O)cc1 | > 64 | > 64 | > 64 | 4 (≈ 8.63 µM) | > 64
N#Cc1ccc(NNC(=O)CCCCCN2C(=O)c3cccc4cccc(c34)C2=O)cc1 | > 64 | > 64 | > 64 | > 64 | > 64
N#Cc1ccc(NNC(=O)CN2C(=O)c3cccc4cccc(c34)C2=O)cc1 | > 64 | > 64 | > 64 | 4 (≈ 10.8 µM) | > 64
NCC[C@H](O)C(=O)N[C@@H]1C[C@H](N)[C@@H](O[C@H]2O[C@H](CN)[C@@H](O)[C@H](O)[C@H]2O)[C@H](O)[C@H]1O[C@H]1O[C@H](CO)[C@@H](O)[C@H](N)[C@H]1O [AMIKACIN] |  |  |  | 4 (≈ 6.83 µM) | 
O=C(CCN1C(=O)c2cccc3cccc(c23)C1=O)NNc1cc(Cl)cc(Cl)c1 | > 64 | > 64 | > 64 | > 64 | > 64
O=C(CCN1C(=O)c2cccc3c(Br)ccc(c23)C1=O)NNc1ccc(Br)cc1 | > 64 | > 64 | > 64 | 4 (≈ 7.73 µM) | > 64
O=C(CCN1C(=O)c2cccc3c(Br)ccc(c23)C1=O)NNc1ccc(Cl)cc1 | > 64 | > 64 | > 64 | 4 (≈ 8.46 µM) | > 64
O=C(CCCN1C(=O)c2cccc3cccc(c23)C1=O)NNc1ccccc1 | > 64 | > 64 | > 64 | 4 (≈ 10.7 µM) | > 64
O=C(CCN1C(=O)c2cccc3cccc(c23)C1=O)NNc1ccccc1Cl | > 64 | > 64 | > 64 | > 64 | > 64
O=C(CCN1C(=O)c2cccc3cccc(c23)C1=O)NNc1cccc(Br)c1 | > 64 | > 64 | > 64 | > 64 | > 64
O=C(CCN1C(=O)c2cccc3cccc(c23)C1=O)NNc1ccccc1Br | > 64 | > 64 | > 64 | > 64 | > 64
N#Cc1ccc(NNC(=O)CCCN2C(=O)c3cccc4cccc(c34)C2=O)cc1 | > 64 | > 64 | > 64 | 2 (≈ 5.02 µM) | > 64
O=C(NNc1ccccc1)[C@@H](Cc1ccccc1)N1C(=O)c2cccc3cccc(c23)C1=O | > 64 | > 64 | > 64 | 8 (≈ 18.4 µM) | > 64
